Measurements taken from patent US11730714B2, “Compounds for the treatment of neuromuscular disorders” (NMD PHARMA A/S, priority 2017, dated 2023).

Tests used:
Format in all cases: cell-based
[1] = system: isolated rat soleus muscles; assay: Recovery of nerve-stimulated force in isolated rat soleus muscles exposed to 3.5 mM Mg2+; details: 9-AC added at 3.5 mM Mg2+; nerve stimulation by suction electrode, 60 Hz
Procedure: (§1) Experiments were performed using rat soleus muscles from either young (4-wk-old) or adult Wistar rats (12-14-week-old). Animal handling, killing and isolation of muscle is described elsewhere All experiments were performed using normal Krebs-Ringer bicarbonate solution (NKR). In solutions with elevated Mg^2+, MgCl2 was added to NKR-solution causing minor increases in osmolarity and ionic strength. In solutions with elevated K^+, 4 mM NaCl was replaced by 4 mM KCl in the NKR.
The aim was to find compounds that by inhibition of CIC-1 channels can recover nerve-stimulated force under conditions of fatigue including conditions where fatigue is caused by compromised neuromuscular transmission. Neuromuscular transmission dysfunction can develop because of both pre- and/or post-synaptic complications in connection with a disorder or as part of neuromuscular blockade during/after surgery. In the initial series of drug testing, experiments were performed with isolated muscles in the presence of sub-maximal ACh receptor antagonist tubocurarine. […] To mimic conditions with pre-synaptic complication (Lambert Eaton syndrome, motor neuron disorder, polyneuropathy) the intact nerve-muscle preparations were incubated at elevated extracellular Mg^2+, which is known to suppress release of ACh from nerve terminals of motor neurons.

[2] = system: isolated rat soleus muscles; assay: Recovery of nerve-stimulated force in isolated rat soleus muscles exposed to sub-maximal tubocurarine; details: 9-AC added after tubocurarine; nerve stimulation by suction electrode, 60 Hz
Procedure: as §1
In all contraction experiments, isometric force production was determined and force produced during contractions was quantified by measuring the integral of the force response (AUC). Stimulation and force recordings have been described elsewhere. […] In these latter experiments, extracellular recordings of action potentials (M-waves) could be measured without temporal overlap with stimulation artefacts.
The aim was to find compounds that by inhibition of CIC-1 channels can recover nerve-stimulated force under conditions of fatigue including conditions where fatigue is caused by compromised neuromuscular transmission. Neuromuscular transmission dysfunction can develop because of both pre- and/or post-synaptic complications in connection with a disorder or as part of neuromuscular blockade during/after surgery. In the initial series of drug testing, experiments were performed with isolated muscles in the presence of sub-maximal ACh receptor antagonist tubocurarine. Since the inclusion of tubocurarine caused a partial loss of neuromuscular transmission this experiment mimics the conditions in myasthenia gravis and neuromuscular blockade. To mimic conditions with pre-synaptic complication (Lambert Eaton syndrome, motor neuron disorder, polyneuropathy) the intact nerve-muscle preparations were incubated at elevated extracellular Mg^2+, which is known to suppress release of ACh from nerve terminals of motor neurons.
The experiments also illustrate that field stimulation of the entire nerve-muscle preparation selectively activates the motor nerve when short-duration pulses (0.02 vs 0.2 ms) were used. In FIG. 1A the preparation was stimulated either via field stimulation or via nerve-stimulation using a suction electrode. With the suction electrode only the nerve could be stimulated. When exposed to a submaximal concentration of the ACh receptor antagonist tubocurarine (0.2 μM) a clear drop in peak force and a further decline (or fade) in force during the stimulation developed. This drop in force clearly reflected compromised neuromuscular transmission, as the decline in peak force and fading were not seen with direct stimulation of the muscle. […] Thus, loss of M-wave and force with tubocurarine reflected partial blockade of neuromuscular function. Such fading of force and M-waves during stimulation represent clinical hallmarks of both myasthenia gravis and neuromuscular blockade in connection with surgery. In FIG. 1B, observations with normal (0.2 ms) and short-duration (0.02 ms) pulses have been compared. It can be seen that only with short-duration pulses did tubocurarine cause a decline in peak force and fading (FIG. 1B). This confirms that short-duration pulses in field stimulation could be used as specific nerve-stimulation. […] Elevated extracellular Mg^2+ could thus be used to partially block neuromuscular transmission and thus be used as a model of conditions with compromised pre-synaptic function (Lambert Eaton syndrome, amyotrophic lateral sclerosis, spinal muscular atrophy). […]

isolated rat muscle = assay: Measurement of force in an in vitro model: isolated rat soleus nerve-muscle preparation, 115 nM tubocurarine; details: 50 μM compound after 90 min in tubocurarine
Procedure: FIGS. 12A-12B. […] Force traces from a representative muscle stimulated to contract in 1) control condition before addition of neuromuscular blocking agent, 2) the force response to stimulation after 90 minutes incubation with Tubocurarine. […] The traces presented in FIG. 12A (1, 2, 3), correspond to the dotted lines in FIG. 12B, respectively.
Recovery of force is quantified as the percentage of the force prior to tubocurarine that is recovered by the compound.
The current invention relates to compounds that inhibit CIC-1 ion channels and increase muscle excitability and thereby improve muscle function in clinical conditions where muscle activation is failing. Such conditions result in loss of contractile function of skeletal muscle, weakness and excessive fatigue. […]
Experimentally, soleus muscles from 4-5 wk old rats were isolated with the motor nerve remaining attached. […] Stimulation of the motor nerve led to activation of the muscle fibres and ensuing force production that was recorded.
After mounting the nerve-muscle preparation in the experimental setup, the contractile function of the muscle was initially assessed under the control conditions (FIG. 2A). […] To quantify the ability of the compound to restore force the percentage of the initial force that was restored was determined after 40 mins of compound exposure (FIG. 2B) and the point increase is reported in Table 8.

SMILES: O=C(O)c1c2ccccc2cc2ccccc12 [Compound 9-AC, 9-anthracenecarboxylic acid, reference compound]
- recovery of force and M-wave signal [1]: marked recovery of both force and M-wave signal
- recovery of force and M-wave signal [2]: marked recovery of both force and M-wave signal

SMILES: O=C(O)[C@H](CF)Oc1ccc(Br)cc1F [Compound A-19, (2R)-2-(4-bromo-2-fluorophenoxy)-3-fluoropropanoic acid]
- recovery of force (in words) (isolated rat muscle): subsequently recovered
